# ChEMBL document CHEMBL1201862, “PubChem BioAssay data set” (2004)
# Calls of active or inactive are those of the source. For most assays here, no stated cut-off is given here; in the data, actives have a measured EC50 and inactives only a lower limit.
# How the values were obtained:
# Cytochrome P450 3A4 = Cytochrome P450 3A4 (Homo sapiens, UniProt P08684);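 further: CYP3A4 tested as one member of a cytochrome P450 panel screen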
# Cytochrome P450 2C9 = Cytochrome P450 2C9 (Homo sapiens, UniProt P11712)
# [1] = NIH-3T3 fibroblast cytotoxicity, dose response, cytotoxicity control, cell-based, fluorescence, Alamar Blue, secondary assay (AID 2327); assay type: functional;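 further: NIH-3T3 mouse fibroblasts cultured with fluconazole at 8 µg/mL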
# [2] = C. albicans growth with fluconazole, confirmation, fluorescence, retest (AID 2467); assay type: functional, cell-based
# INS1 = assay: beta cell apoptosis inhibitors, cytokine rescue, dose response, luminescence, retest (AID 449756); assay type: functional, cell-based; conditions: Rattus norvegicus;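 further: cell death triggered by IL-1 beta plus TNF-alpha plus IFN-gamma mixture; protective hits raise ATP signal compared with cytokine alone wells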
# BJ [3] = assay: cytotoxicity toward BJ-TERT fibroblasts, dose response, cell-based, RAS-independent, luminescence (AID 1933); assay type: functional; conditions: Homo sapiens
# BJ [4] = assay: cells; assay type: functional, cell-based; conditions: Homo sapiens
# BJ [5] = assay: cytotoxicity toward BJ-TERT-LT-ST fibroblasts, dose response, cell-based, RAS-independent, luminescence (AID 1935); assay type: functional; conditions: Homo sapiens;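 further: BJ fibroblasts immortalized with TERT plus LT and ST oncogenes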
# [6] = cytotoxicity toward DRD oncogenic fibroblasts, dose response, cell-based, non-viral oncogenic, luminescence (AID 1934); assay type: functional; conditions: Homo sapiens
# [7] = molecular target: T1, RNA-binding protein pos-1 (Caenorhabditis elegans, UniProt G5EF15); assay: inhibitors of POS-1/mex-3 RNA binding, dose response, biochemical, fluorescence polarization (AID 1964);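 further: purified POS-1 fused to maltose binding protein made in E. coli; potency of compounds blocking POS-1 binding to fluorescent RNA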
# T1 sequence (G5EF15 whole entry): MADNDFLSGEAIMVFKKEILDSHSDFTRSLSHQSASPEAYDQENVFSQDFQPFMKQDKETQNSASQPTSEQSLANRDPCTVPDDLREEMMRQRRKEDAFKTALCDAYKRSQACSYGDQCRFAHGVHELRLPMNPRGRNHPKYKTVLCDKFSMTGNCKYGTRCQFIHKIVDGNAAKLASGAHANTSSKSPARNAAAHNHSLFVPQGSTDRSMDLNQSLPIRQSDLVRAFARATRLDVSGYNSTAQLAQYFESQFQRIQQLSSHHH
# [8] = molecular target: T2, Zinc finger protein mex-5 (Caenorhabditis elegans, UniProt Q9XUB2); assay: MEX-5/TCR-2 RNA interaction inhibitors, dose response, biochemical, C. elegans, fluorescence polarization (AID 1960)
# T2 sequence (Q9XUB2 whole entry): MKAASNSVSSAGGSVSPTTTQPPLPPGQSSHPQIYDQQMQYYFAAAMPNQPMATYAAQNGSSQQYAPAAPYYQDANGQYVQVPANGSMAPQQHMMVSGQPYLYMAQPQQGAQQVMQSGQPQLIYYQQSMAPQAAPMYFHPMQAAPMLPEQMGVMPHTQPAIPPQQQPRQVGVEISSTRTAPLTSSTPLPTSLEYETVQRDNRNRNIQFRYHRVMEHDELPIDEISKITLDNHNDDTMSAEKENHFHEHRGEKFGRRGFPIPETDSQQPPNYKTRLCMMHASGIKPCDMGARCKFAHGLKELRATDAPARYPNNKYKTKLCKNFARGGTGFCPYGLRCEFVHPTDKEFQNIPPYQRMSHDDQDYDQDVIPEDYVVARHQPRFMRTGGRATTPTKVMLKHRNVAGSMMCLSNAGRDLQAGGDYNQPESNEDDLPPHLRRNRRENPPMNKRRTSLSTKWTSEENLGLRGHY
# Leucine aminopeptidase = molecular target: T3, Leucine aminopeptidase (Plasmodium falciparum 3D7, UniProt Q8IL11); assay: P. falciparum M17LAP inhibitors, primary screen, biochemical, fluorogenic H-Leu-NHMec substrate, 1536-well (AID 1619); assay type: functional
# T3 sequence (Q8IL11 whole entry): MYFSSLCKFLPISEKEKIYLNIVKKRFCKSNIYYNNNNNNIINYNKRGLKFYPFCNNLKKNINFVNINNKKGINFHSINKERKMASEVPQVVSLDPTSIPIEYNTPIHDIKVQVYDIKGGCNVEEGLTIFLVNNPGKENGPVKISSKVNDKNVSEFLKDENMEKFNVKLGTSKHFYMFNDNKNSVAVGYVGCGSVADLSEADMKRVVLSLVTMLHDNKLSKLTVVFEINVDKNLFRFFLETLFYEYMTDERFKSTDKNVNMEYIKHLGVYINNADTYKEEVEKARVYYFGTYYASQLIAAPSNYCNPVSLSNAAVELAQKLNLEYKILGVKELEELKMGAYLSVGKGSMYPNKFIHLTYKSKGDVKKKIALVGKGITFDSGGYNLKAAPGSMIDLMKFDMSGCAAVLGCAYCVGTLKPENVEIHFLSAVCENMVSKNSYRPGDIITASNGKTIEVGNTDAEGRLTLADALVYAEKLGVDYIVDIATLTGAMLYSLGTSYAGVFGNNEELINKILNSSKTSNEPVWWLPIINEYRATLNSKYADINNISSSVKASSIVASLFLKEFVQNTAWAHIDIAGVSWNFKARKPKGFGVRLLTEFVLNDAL
# [9] = Luminescence Cell-Based Dose Confirmation HTS to Identify Activators of 5'UTR Stem-Loop Driven Alpha-Synuclein mRNA Translation in H4 Neuroglioblastoma Cells. [Related pubchem assays: 1829 (Project Summary), 1814 (Primary HTS)]; assay type: functional
# [10] = Luminescence Cell-Based Dose Response HTS to Identify Activators of Luciferase Translation or Activity in H4 […] Cells. [Related pubchem assays: 1829 (Project Summary), 1814 (Primary HTS)]; assay type: functional
# H4 = assay: Luminescence Cell-Based Dose Response HTS to Identify Activators of 5'UTR Stem-Loop Driven Prion Protein mRNA Translation in H4 Neuroglioblastoma Cells. [Related pubchem assays: 1829 (Project Summary), 1814 (Primary HTS)]; assay type: functional; conditions: Homo sapiens
# [11] = molecular target: Luciferin 4-monooxygenase (Photinus pyralis, UniProt P08659); assay: firefly luciferase enzyme inhibitors, dose response, biochemical, luminescence (AID 1891)
# [12] = Luminescence Cell-Based Dose Confirmation HTS to Identify Inhibitors of Platelet Dense Granule Release. [Related pubchem assays: 1663 (Primary HTS), 1678 (Summary of Project)]; assay type: functional
# [13] = molecular target: FAD-linked sulfhydryl oxidase ALR (Homo sapiens, UniProt P55789); assay: inhibitors of human ALR sulfhydryl oxidase, dose response, biochemical, H2O2 detection, luminescence, cherry-pick (AID 493248)
# Chain of FAD-linked sulfhydryl oxidase ALR (P55789 whole entry): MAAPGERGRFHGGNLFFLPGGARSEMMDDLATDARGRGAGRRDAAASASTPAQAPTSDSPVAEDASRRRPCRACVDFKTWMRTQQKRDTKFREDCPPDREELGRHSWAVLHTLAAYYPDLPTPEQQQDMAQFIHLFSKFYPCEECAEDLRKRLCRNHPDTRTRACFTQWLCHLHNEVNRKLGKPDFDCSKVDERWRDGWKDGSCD
# Chain of Cytochrome P450 2C9 (P11712 whole entry): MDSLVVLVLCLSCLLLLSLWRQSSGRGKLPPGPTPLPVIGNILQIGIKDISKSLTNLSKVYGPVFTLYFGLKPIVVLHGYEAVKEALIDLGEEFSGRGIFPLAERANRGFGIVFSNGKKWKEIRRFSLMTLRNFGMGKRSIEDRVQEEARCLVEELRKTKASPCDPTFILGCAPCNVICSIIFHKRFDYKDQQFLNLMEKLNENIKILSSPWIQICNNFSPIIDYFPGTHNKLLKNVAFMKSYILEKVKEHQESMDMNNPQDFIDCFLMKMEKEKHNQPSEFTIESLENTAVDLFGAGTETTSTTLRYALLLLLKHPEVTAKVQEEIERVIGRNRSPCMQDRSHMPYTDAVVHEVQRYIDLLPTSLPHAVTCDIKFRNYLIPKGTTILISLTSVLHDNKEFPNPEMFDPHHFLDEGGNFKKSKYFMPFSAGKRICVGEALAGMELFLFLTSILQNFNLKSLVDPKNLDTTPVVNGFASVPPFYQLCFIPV
# Chain of Luciferin 4-monooxygenase (P08659 whole entry): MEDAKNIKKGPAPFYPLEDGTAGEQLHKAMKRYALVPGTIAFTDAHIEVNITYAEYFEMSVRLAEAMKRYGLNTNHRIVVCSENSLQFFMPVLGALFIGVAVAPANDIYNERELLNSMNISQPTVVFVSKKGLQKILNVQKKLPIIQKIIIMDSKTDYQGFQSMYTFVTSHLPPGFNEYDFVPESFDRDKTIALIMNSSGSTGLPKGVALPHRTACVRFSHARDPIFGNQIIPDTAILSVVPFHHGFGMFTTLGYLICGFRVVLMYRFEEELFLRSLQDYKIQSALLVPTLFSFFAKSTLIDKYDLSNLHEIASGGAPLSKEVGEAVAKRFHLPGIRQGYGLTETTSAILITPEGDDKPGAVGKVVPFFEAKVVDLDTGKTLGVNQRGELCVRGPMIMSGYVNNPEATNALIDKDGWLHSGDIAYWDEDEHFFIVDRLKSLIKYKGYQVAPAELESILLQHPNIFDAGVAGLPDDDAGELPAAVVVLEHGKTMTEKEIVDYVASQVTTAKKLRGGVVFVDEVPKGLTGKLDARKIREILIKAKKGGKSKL
# Chain of Cytochrome P450 3A4 (P08684 whole entry): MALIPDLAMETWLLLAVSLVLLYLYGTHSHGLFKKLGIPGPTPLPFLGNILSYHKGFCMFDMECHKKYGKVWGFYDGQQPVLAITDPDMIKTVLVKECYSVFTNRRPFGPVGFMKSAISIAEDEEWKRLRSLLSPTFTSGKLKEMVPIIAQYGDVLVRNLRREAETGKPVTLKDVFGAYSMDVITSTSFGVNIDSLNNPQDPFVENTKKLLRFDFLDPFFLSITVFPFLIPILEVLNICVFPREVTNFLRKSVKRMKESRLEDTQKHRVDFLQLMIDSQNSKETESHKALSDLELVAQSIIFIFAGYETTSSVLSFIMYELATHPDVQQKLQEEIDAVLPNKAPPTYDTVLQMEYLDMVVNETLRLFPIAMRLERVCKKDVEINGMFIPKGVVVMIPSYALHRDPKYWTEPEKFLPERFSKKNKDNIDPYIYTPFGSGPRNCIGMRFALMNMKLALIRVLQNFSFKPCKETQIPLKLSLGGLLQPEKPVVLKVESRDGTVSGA
compound,measurement,setting,value
O=C(CN1C(=O)c2ccccc2C1=O)NCC(=O)OCC(=O)c1ccc(Br)cc1,AC50,Cytochrome P450 3A4,3.55 µM (inconclusive)
same,AC50,Cytochrome P450 2C9,inconclusive
C=CCN1C(=O)N/C(=C/c2ccc(N3CCOCC3)o2)C1=O,EC50,[1],20 µM (active)
same,EC50,[2],2.15 µM (active)
same,AC50,INS1,> 260 µM (inactive)
COc1cc(C(=O)c2cocc2C(=O)c2ccc3c(c2)OCO3)cc(OC)c1OC,EC50,BJ [3],2.71 µM (active)
same,EC50,BJ [4],38.6 µM (inconclusive)
same,EC50,BJ [5],2.57 µM (inconclusive)
same,EC50,[6],1.45 µM (active)
CN=C(S)N1N=C(c2ccccc2)CC1c1ccccc1Cl (stereo not given),EC50,[1],> 160 µM (inactive)
same,EC50,[2],> 38 µM (not active)
Cc1cccc(C2CC3(CC(C)(C)N=C(S)N3)Oc3cc(O)ccc32)c1 (stereo not given),EC50,[1],> 150 µM (inactive)
same,EC50,[2],2.44 µM (active)
CC1=NN(C(N)=S)C(=O)C1N=Nc1ccc(S(N)(=O)=O)cc1 (stereo not given),EC50,[7],19.7 µM (active)
same,EC50,[8],8.86 µM (active)
COc1ccc(NC(=O)CSc2c(C)nn(-c3nnc(C)c(=O)[nH]3)c2C)cc1,IC50,Leucine aminopeptidase,83.7 µM (active)
CC(=O)Nc1cccc(Oc2nc(-c3ccccn3)nc3ccccc23)c1,EC50,[7],79.3 µM (active)
same,EC50,[9],92.7 µM (active)
same,EC50,[10],11.8 µM (active)
same,EC50,H4,7.56 µM (active)
same,EC50,[8],5.2 µM (active)
CCC(=O)c1ccc(OCC(=O)Nc2ccccc2N2CCCCC2)cc1,EC50,BJ [3],> 150 µM (not active)
same,EC50,BJ [4],35.6 µM (active)
same,EC50,BJ [5],> 150 µM (not active)
same,EC50,[6],> 150 µM (not active)
CCOC(=O)c1cccc(NC(=O)CSc2nc(N)cc(N)n2)c1,IC50,Leucine aminopeptidase,13.8 µM (active)
Cc1ccc(N2C(=O)c3ccccc3C2O)nc1 (stereo not given),EC50,BJ [3],8.32 µM (active)
same,EC50,[11],6.56 µM (active)
same,EC50,[12],1.74 µM (active)
same,EC50,BJ [5],> 75 µM (inconclusive)
same,EC50,[6],7.47 µM (inconclusive)
CCN(CC)c1ccc(NC(=O)Cn2cc3c(n2)CCC(C)C3)c(C)c1 (stereo not given),IC50,Leucine aminopeptidase,6.41 µM (active)
same,AC50,[13],48.8 µM (active)
Cc1nn(C)c(C)c1CN(C)C(=O)C1c2ccccc2Oc2ccccc21,EC50,[7],15.5 µM (active)
same,EC50,[8],9.86 µM (active)
